Results on two compounds are retold here after US20170367956A1, “Oral Care Composition” (Colgate-Palmolive Company, priority 2014, published 2017).

One experiment deals with HSP 27. Nature of the experiment: HSP 27 assay in scratched (damaged) human gingival tissue, supernatant level. The conditions noted are these: for Concentration of HSP 27: scratched gingival tissue. Format: cell-based. On the procedure: A scratching protocol was used to damage and stress human gingival tissue (MatTek Corporation). Taurine, at two doses, (50 ppm and 200 ppm), was applied to the culture medium containing the tissue. The treated tissue was incubated at 37° C. to promote tissue healing. Cell supernatant was collected at various time points and the level of HSP 27 was measured.

In the next experiment the test system is Human keratinocytes. Nature of the experiment: Migration of human keratinocytes after scratch (gap closure). The conditions noted are these: for % Gap Closure: 100 ppm taurine in DMEM. The format is cell-based. On the procedure: Human keratinocytes are cultured in DMEM medium supplemented with 10% FBS and 1% of antibiotic at 37° C. under a 5% CO2 atmosphere in petri dishes. Once the cells are 80-90% confluent, a scratch is made horizontally and a scratch is made vertically across the layer of cells. 1 ml of a test solution is added to the culture, and the cells are further incubated and monitored by photomicroscopy to evaluate the closure of the gap created by the scratches. The test solutions compared are 100 ppm Taurine in DMEM medium and untreated DMEM medium. The results are shown in Table 4 below, expressed as the average width of the gap as a percentage of the initial width of the gap (at 0 hours).

The subject of a further experiment is HSP-27. Put plainly: Intracellular HSP27 expression in scratched keratinocytes (ELISA). Format: cell-based, human. The conditions noted are these: for HSP-27, intracellular: 50 ppm taurine. On the procedure: Human keratinocytes are cultured in DMEM medium supplemented with 10% FBS and 1% of antibiotic at 37° C. under a 5% CO2 atmosphere in petri dishes. Once the cells are 80-90% confluent, a scratch is made horizontally and a scratch is made vertically across the layer of cells. […] […] The cell suspension is then homogenized with metal beads for 5 minutes and then analyzed for HSP27 using ELISA. In both untreated and arginine treated cells, scratching induces a strong increase in intracellular HSP-27 expression at one hour which declines at 4 hours. […] Without being bound by theory, Applicants believe that it is this initial burst of HSP-27 expression at the time of physical injury that contributes to improved wound healing.

For the compound `NCCS(=O)(=O)O` [Taurine, 2-aminoethanesulfonic acid], the “Difference in HSP 27 production between the two concentrations of taurine (in words)” value in the experiment on HSP 27 (50 ppm versus 200 ppm) is “no significant difference”. In addition, in the experiment with HSP 27 (both doses tested (50 ppm and 200 ppm), 1 hour and 4 hours), the “Effect on production of HSP 27 versus untreated, scratched tissue (in words)” value is on record as “significantly accelerated the production of HSP 27”. Moreover, the “Concentration of HSP 27” value was determined as 10.05 ng/mL with HSP 27 (taurine 50 ppm, incubation time 0 hr); 180.33 ng/mL in the experiment with HSP 27 (taurine 50 ppm, incubation time 1 hr); 269.64 ng/mL with HSP 27 (taurine 50 ppm, incubation time 4 hr); 6.19 ng/mL in the experiment with HSP 27 (taurine 200 ppm, incubation time 0 hr); 196.95 ng/mL in the experiment on HSP 27 (taurine 200 ppm, incubation time 1 hr); 275.17 ng/mL with HSP 27 (taurine 200 ppm, incubation time 4 hr). In addition, the “Speed of gap closure compared to the DMEM control (in words)” value in the experiment on Human keratinocytes (100 ppm taurine) is on record as “significantly faster”. For the same compound, the “% Gap Closure” value with Human keratinocytes (24 hr after scratch) is on record as 23%; in the experiment with Human keratinocytes (48 hr after scratch), 71%; with Human keratinocytes (144 hr after scratch), 100%. In addition, the “HSP-27, intracellular” value with HSP-27 (time 0 hr) was 23.59 ng/mL; in the experiment on HSP-27 (time 1 hr) it was 69.65 ng/mL.

Turning to `N=C(N)NCCC[C@H](N)C(=O)O` [arginine], the “Intracellular HSP-27 expression versus untreated cells (in words)” value with HSP-27 was “significantly higher expression of HSP-27”.
